The text below walks through data of US10538520B2, “Benzamide and nicotinamide compounds and methods of using same” (OncoTartis Inc., priority 2013, dated 2020).

The subject of one test is MV4-11. As to the kind of experiment: Cytotoxicity towards MV4-11 cell line. Particulars: Homo sapiens. The test is classed as cell-based. As for the experimental part:
(§1) In various embodiments, the compounds of the disclosure are those in which show IC50 values in cytotoxicity experiments towards cells lines MV4-11 and U937 of >20 μM, 10-20 μM, 5-10 μM, 1-5 μM, or <1 μM.
(§2) The IC50 is divided into 5 categories: A<1 μM, B 1-5 μM, C 5-10 μM, D 10-20 μM, and E>20 μM.

The next test relates to U-937. As to the kind of experiment: Cytotoxicity towards U-937 cell line. In kind it is cell-based. To be noted: Homo sapiens. On the procedure: as §1, §2

The IC50 is the concentration that inhibits the measured activity by half. Low readings indicate higher potency, high ones lower potency. Consider `O=C(NCc1ccco1)c1ccc(-n2cccn2)c(C#Cc2ccccn2)c1` [TT-02947], for which the IC50 is over 20 µM in the test with MV4-11 and under 1 µM in the test with U-937.

Turning to `CCc1nnc(NC(=O)c2ccc(-n3cccn3)c(C#Cc3ccccn3)c2)s1` [TT-02948], the IC50 in the test on MV4-11 and with U-937 was over 20 µM throughout.

With `Cc1nn(-c2ccc(C(=O)NCCc3c[nH]cn3)cc2C#Cc2ccccc2)c(C)c1C` [TT-02949], the values for the IC50 with MV4-11 and in the test on U-937 were 10 to 20 µM and 5 to 10 µM, respectively.

On to `O=C(NCCCn1ccnc1)c1ccc(-n2cccn2)cc1` [TT-03071], for which the IC50 with MV4-11 and in the test on U-937 was 1 to 5 µM each time.

As for `O=C(NCCCn1ccnc1)c1cccc(Br)c1` [TT-03073], the IC50 with MV4-11 and in the test on U-937 was over 20 µM each time.

Regarding `Cc1ccc(C(=O)NCCCn2ccnc2)cc1C#Cc1ccccc1` [TT-03196], the IC50 in the test on MV4-11 and in the test on U-937 was under 1 µM throughout.

For `O=C(NCCCc1cn[nH]c1)c1ccc(-n2cccn2)c(C#Cc2cccc(F)c2)c1` [TT-03198], the IC50 in the test on MV4-11 and in the test on U-937 was under 1 µM throughout.

Regarding `Cc1ccc(C#Cc2cc(C(=O)NCCCc3cn[nH]c3)ccc2-n2cccn2)cc1` [TT-03201], the IC50 with MV4-11 and with U-937 was under 1 µM each time.

In the case of `O=C(NCCCc1cn[nH]c1)c1ccc(-n2cccn2)c(C#Cc2ccccc2F)c1` [TT-03211], the IC50 in the test with MV4-11 and with U-937 was under 1 µM in each case.

As to `O=C(NCCCn1ccnc1)c1ccc(-n2cccn2)c(C#Cc2cccc(F)c2)c1` [TT-03217], the IC50 with MV4-11 and in the test with U-937 was under 1 µM each time.

As for `O=C(NCCCn1ccnc1)c1ccc(-n2cccn2)c(C#Cc2ccc(Cl)cc2)c1` [TT-03221], the IC50 in the test with MV4-11 and in the test on U-937 was under 1 µM throughout.

Turning to `O=C(NCCCn1ccnc1)c1ccc(-n2cccn2)c(C#Cc2ccccc2F)c1` [TT-03225], the IC50 in the test on MV4-11 and in the test with U-937 was under 1 µM throughout.

With `O=C(NCCCc1cn[nH]c1)c1ccc(N2CCCC2)c(C#Cc2ccccc2)c1` [TT-03230], the IC50 in the test on MV4-11 and in the test with U-937 was under 1 µM each time.

In the case of `O=C(NCCCc1cn[nH]c1)c1ccc(N2CCOCC2)c(C#Cc2ccccc2)c1` [TT-03232], the IC50 with MV4-11 and in the test on U-937 was under 1 µM each time.

As for `O=C(NCCCc1cn[nH]c1)c1ccc(Oc2ccccc2)c(C#Cc2ccccc2)c1` [TT-03233], the IC50 in the test on MV4-11 and in the test with U-937 was under 1 µM throughout.

As for `O=C(NCCCc1cn[nH]c1)c1ccc(-n2cnnc2)c(C#Cc2ccccc2)c1` [TT-03237], the IC50 in the test with MV4-11 and in the test with U-937 was over 20 µM in each case.

With `CN(C)c1ccc(C(=O)NCCCc2cn[nH]c2)cc1C#Cc1ccccc1` [TT-03242], the IC50 with MV4-11 and in the test on U-937 was under 1 µM each time.

In the case of `O=C(NCCCc1cn[nH]c1)c1ccc(-c2cccnc2)c(C#Cc2ccccc2)c1` [TT-03245], the IC50 with MV4-11 and with U-937 was under 1 µM each time.

As for `O=C(NCCCc1cn[nH]c1)c1ccc(-c2ccncc2)c(C#Cc2ccccc2)c1` [TT-03246], the IC50 in the test with MV4-11 and in the test with U-937 was under 1 µM throughout.

Consider `Cc1ccc(C(=O)NCCCc2cn[nH]c2)cc1C#Cc1ccccc1` [TT-03248], for which the IC50 in the test on MV4-11 and with U-937 was under 1 µM throughout.

For the molecule `CN(C)c1ccc(C(=O)NCCCn2ccnc2)cc1C#Cc1ccccc1` [TT-03252], the IC50 in the test with MV4-11 and in the test on U-937 was under 1 µM throughout.

Take `O=C(NCCCn1ccnc1)c1ccc(-c2ccncc2)c(C#Cc2ccccc2)c1` [TT-03256]: the IC50 with MV4-11 and with U-937 was under 1 µM throughout.

Turning to `O=C(NCCCn1ccnc1)c1ccc(N2CCOCC2)c(C#Cc2ccccc2)c1` [TT-03261], the IC50 in the test with MV4-11 and in the test with U-937 was under 1 µM each time.

For the molecule `O=C(NCCCn1ccnc1)c1ccc(-n2cccn2)c(C#Cc2cccnc2)c1` [TT-03264], the concentration for half-maximal inhibition (IC50) with MV4-11 and in the test with U-937 was under 1 µM each time.

On to `O=C(NCCCc1cn[nH]c1)c1ccc(-n2cccn2)c(C#Cc2cccnc2)c1` [TT-03303], for which the IC50 in the test with MV4-11 and in the test with U-937 was under 1 µM each time.

As for `O=C(NCCCc1cn[nH]c1)c1ccc(-n2cccn2)c(C#Cc2ccncc2)c1` [TT-03304], the IC50 in the test with MV4-11 and in the test with U-937 was under 1 µM each time.

On to `O=C(NCCCn1ccnc1)c1ccc(-n2cccn2)c(C#Cc2ccncc2)c1` [TT-03305], for which the IC50 in the test with MV4-11 and in the test on U-937 was under 1 µM in each case.

For the molecule `COc1ccc(C#Cc2cc(C(=O)NCCCc3cn[nH]c3)ccc2-n2cccn2)cc1` [TT-03306], the half-inhibitory concentration (IC50) in the test with MV4-11 and with U-937 was under 1 µM throughout.

As to `COc1cccc(C#Cc2cc(C(=O)NCCCc3cn[nH]c3)ccc2-n2cccn2)c1` [TT-03308], the IC50 in the test with MV4-11 and in the test with U-937 was under 1 µM in each case.

Consider `COc1cccc(C#Cc2cc(C(=O)NCCCn3ccnc3)ccc2-n2cccn2)c1` [TT-03309], for which the IC50 with MV4-11 and in the test on U-937 was under 1 µM in each case.

Consider `O=C(NCCCc1cn[nH]c1)c1ccc(-n2cccn2)c(C#Cc2cccc(O)c2)c1` [TT-03311], for which the IC50 with MV4-11 and with U-937 was under 1 µM throughout.

In the case of `O=C(NCCCn1ccnc1)c1ccc(-n2cccn2)c(C#Cc2cccc(O)c2)c1` [TT-03312], the IC50 in the test with MV4-11 and with U-937 was under 1 µM in each case.

For `O=C(NCCCc1cn[nH]c1)c1ccc(-n2cccn2)c(C#Cc2ccccc2Cl)c1` [TT-03321], the half-inhibitory concentration (IC50) in the test with MV4-11 and in the test with U-937 was under 1 µM throughout.

As for `O=C(NCCCc1cn[nH]c1)c1ccc(-n2cccn2)c(C#Cc2cccc(Cl)c2)c1` [TT-03322], the IC50 in the test with MV4-11 and with U-937 was under 1 µM throughout.

Consider `O=C(NCCCc1cn[nH]c1)c1ccc(-n2cccn2)c(C#Cc2ccccc2C(F)(F)F)c1` [TT-03323], for which the IC50 in the test with MV4-11 and with U-937 was under 1 µM throughout.

Regarding `O=C(NCCCc1cn[nH]c1)c1ccc(-n2cccn2)c(C#Cc2ccc(C(F)(F)F)cc2)c1` [TT-03324], the IC50 with MV4-11 and in the test with U-937 was 1 to 5 µM in each case.

`Cc1ccccc1C#Cc1cc(C(=O)NCCCc2cn[nH]c2)ccc1-n1cccn1` [TT-03326]: the IC50 with MV4-11 and with U-937 was under 1 µM each time.

Regarding `Cc1cccc(C#Cc2cc(C(=O)NCCCn3ccnc3)ccc2-n2cccn2)c1` [TT-03327], the IC50 in the test on MV4-11 and in the test on U-937 was under 1 µM each time.

Turning to `Cc1cccc(C#Cc2cc(C(=O)NCCCc3cn[nH]c3)ccc2-n2cccn2)c1` [TT-03328], the concentration for half-maximal inhibition (IC50) in the test on MV4-11 and in the test with U-937 was under 1 µM in each case.

On to `COc1ccccc1C#Cc1cc(C(=O)NCCCc2cn[nH]c2)ccc1-n1cccn1` [TT-03330], for which the IC50 in the test with MV4-11 and with U-937 was under 1 µM throughout.

As to `O=C(NCCCn1ccnc1)c1ccc(-n2cccn2)c(C#Cc2cccc(C(F)(F)F)c2)c1` [TT-03331], the IC50 with MV4-11 and with U-937 was under 1 µM throughout.

Regarding `O=C(NCCCc1cn[nH]c1)c1ccc(-n2cccn2)c(C#Cc2cccc(C(F)(F)F)c2)c1` [TT-03332], the IC50 in the test with MV4-11 and with U-937 was under 1 µM throughout.

As for `NCc1ccc(C#Cc2cc(C(=O)NCCCc3cn[nH]c3)ccc2-n2cccn2)cc1` [TT-03334], the IC50 in the test on MV4-11 and in the test with U-937 was under 1 µM each time.

Turning to `C#Cc1cc(C(=O)NCCCc2cn[nH]c2)ccc1-n1cccn1` [TT-03337], the figures for the IC50 with MV4-11 and in the test on U-937 were 10 to 20 µM and over 20 µM, respectively.

Regarding `CC(C)(O)C#Cc1cc(C(=O)NCCCc2cn[nH]c2)ccc1-n1cccn1` [TT-03346], the 50% inhibitory concentration (IC50) in the test with MV4-11 was 5 to 10 µM; in the test with U-937, over 20 µM.

As to `O=C(NCCCc1cn[nH]c1)c1ccc(-n2cccn2)c(C#CC2(O)CCCCC2)c1` [TT-03351], the IC50 in the test with MV4-11 and in the test on U-937 was 5 to 10 µM throughout.

With `Nc1cccc(C#Cc2cc(C(=O)NCCCc3cn[nH]c3)ccc2-n2cccn2)n1` [TT-03354], the half-maximal inhibitory concentration (IC50) with MV4-11 and in the test on U-937 was under 1 µM each time.

With `O=C(NCCCc1cn[nH]c1)c1ccc(-n2cccn2)c(C#Cc2ccccn2)c1` [TT-03355], the IC50 in the test with MV4-11 and with U-937 was under 1 µM in each case.

`N#Cc1cccc(C#Cc2cc(C(=O)NCCCc3cn[nH]c3)ccc2-n2cccn2)c1` [TT-03357]: the IC50 in the test with MV4-11 and in the test with U-937 was under 1 µM throughout.

Consider `CNC(=O)c1cccc(C#Cc2cc(C(=O)NCCCc3cn[nH]c3)ccc2-n2cccn2)c1` [TT-03359], for which the IC50 with MV4-11 and with U-937 was under 1 µM in each case.

`CC(C)(C)OC(=O)NCc1ccc(C#Cc2cc(C(=O)NCCCc3cn[nH]c3)ccc2-n2cccn2)cc1` [TT-03364]: the IC50 with MV4-11 and in the test on U-937 was 1 to 5 µM in each case.

With `O=C(NCCCc1cn[nH]c1)c1ccc(-n2cccn2)c(C#Cc2ccc(F)cn2)c1` [TT-03569], the IC50 in the test with MV4-11 and with U-937 was under 1 µM each time.

In the case of `O=C(NCCCn1ccnc1)c1ccc(-n2cccn2)c(CCc2ccccc2)c1` [TT-03574], the IC50 with MV4-11 and in the test on U-937 was 5 to 10 µM in each case.

`O=C(NCCCc1cn[nH]c1)c1ccc(-c2ccncc2)c(C#Cc2ccc(F)cc2)c1` [TT-03582]: the IC50 in the test on MV4-11 and in the test on U-937 was under 1 µM each time.

For `Cn1cc(-c2ccc(C(=O)NCCCc3cn[nH]c3)cc2C#Cc2ccc(F)cc2)cn1` [TT-03585], the IC50 in the test with MV4-11 and in the test with U-937 was under 1 µM each time.

As to `O=C(NCCCc1cn[nH]c1)c1ccc(N2CCC(O)CC2)c(C#Cc2ccc(F)cc2)c1` [TT-03587], the IC50 in the test with MV4-11 and in the test on U-937 was under 1 µM throughout.

Take `O=C(NCCCc1cn[nH]c1)c1ccc(N2CCCCC2)c(C#Cc2ccc(F)cc2)c1` [TT-03588]: the IC50 with MV4-11 and in the test with U-937 was under 1 µM throughout.

On to `O=C(NCCCc1cn[nH]c1)c1ccc(N2CCCCCC2)c(C#Cc2ccc(F)cc2)c1` [TT-03589], for which the IC50 in the test with MV4-11 and with U-937 was under 1 µM each time.

With `O=C(NCCCc1cn[nH]c1)c1ccc(N2CCC3(CCCCC3)C2)c(C#Cc2ccc(F)cc2)c1` [TT-03590], the IC50 with MV4-11 and in the test with U-937 was under 1 µM each time.
